Test results taken from ChEMBL document CHEMBL5579818, “Identification of 3-(9H-carbazol-9-yl)-2-(1,3-dioxoisoindolin-2-yl)propanoic acids as promising DNMT1 inhibitors” (Eur J Med Chem, 2024).

Tests used:
[1] = target: T1, DNA (cytosine-5)-methyltransferase 1 (Homo sapiens, UniProt P26358); experiment: Binding affinity to human DNMT1 expressed in Escherichia coli assessed as response unit at 10 uM by SPR analysis
[2] = target: T1, DNA (cytosine-5)-methyltransferase 1; experiment: Binding affinity to human DNMT1 expressed in Escherichia coli assessed as equilibrium dissociation constant by SPR analysis
A2780 = experiment: Antiproliferative activity against human A2780 cells incubated for 48 hrs by MTT assay; type: functional, cell-based; settings: A2780, 48 h
HeLa = experiment: Antiproliferative activity against human HeLa cells incubated for 48 hrs by MTT assay; type: functional, cell-based
K562 = experiment: Antiproliferative activity against human K562 cells incubated for 48 hrs by MTT assay; type: functional, cell-based; settings: K562, 48 h
SiHa = experiment: Antiproliferative activity against human SiHa cells incubated for 48 hrs by MTT assay; type: functional, cell-based
[3] = Inhibition of recombinant human DNA methyltransferase using DNA as substrate incubated for 2 hrs by agarose gel assay
[4] = target: T1, DNA (cytosine-5)-methyltransferase 1; experiment: Binding affinity to human DNMT1 expressed in Escherichia coli by SPR analysis
[5] = target: T1, DNA (cytosine-5)-methyltransferase 1; experiment: Inhibition of DNMT1 (unknown origin) at 500 uM relative to control
[6] = target: T1, DNA (cytosine-5)-methyltransferase 1; experiment: Inhibition of DNMT1 (unknown origin) at 250 uM relative to control

T1 sequence (P26358 whole entry): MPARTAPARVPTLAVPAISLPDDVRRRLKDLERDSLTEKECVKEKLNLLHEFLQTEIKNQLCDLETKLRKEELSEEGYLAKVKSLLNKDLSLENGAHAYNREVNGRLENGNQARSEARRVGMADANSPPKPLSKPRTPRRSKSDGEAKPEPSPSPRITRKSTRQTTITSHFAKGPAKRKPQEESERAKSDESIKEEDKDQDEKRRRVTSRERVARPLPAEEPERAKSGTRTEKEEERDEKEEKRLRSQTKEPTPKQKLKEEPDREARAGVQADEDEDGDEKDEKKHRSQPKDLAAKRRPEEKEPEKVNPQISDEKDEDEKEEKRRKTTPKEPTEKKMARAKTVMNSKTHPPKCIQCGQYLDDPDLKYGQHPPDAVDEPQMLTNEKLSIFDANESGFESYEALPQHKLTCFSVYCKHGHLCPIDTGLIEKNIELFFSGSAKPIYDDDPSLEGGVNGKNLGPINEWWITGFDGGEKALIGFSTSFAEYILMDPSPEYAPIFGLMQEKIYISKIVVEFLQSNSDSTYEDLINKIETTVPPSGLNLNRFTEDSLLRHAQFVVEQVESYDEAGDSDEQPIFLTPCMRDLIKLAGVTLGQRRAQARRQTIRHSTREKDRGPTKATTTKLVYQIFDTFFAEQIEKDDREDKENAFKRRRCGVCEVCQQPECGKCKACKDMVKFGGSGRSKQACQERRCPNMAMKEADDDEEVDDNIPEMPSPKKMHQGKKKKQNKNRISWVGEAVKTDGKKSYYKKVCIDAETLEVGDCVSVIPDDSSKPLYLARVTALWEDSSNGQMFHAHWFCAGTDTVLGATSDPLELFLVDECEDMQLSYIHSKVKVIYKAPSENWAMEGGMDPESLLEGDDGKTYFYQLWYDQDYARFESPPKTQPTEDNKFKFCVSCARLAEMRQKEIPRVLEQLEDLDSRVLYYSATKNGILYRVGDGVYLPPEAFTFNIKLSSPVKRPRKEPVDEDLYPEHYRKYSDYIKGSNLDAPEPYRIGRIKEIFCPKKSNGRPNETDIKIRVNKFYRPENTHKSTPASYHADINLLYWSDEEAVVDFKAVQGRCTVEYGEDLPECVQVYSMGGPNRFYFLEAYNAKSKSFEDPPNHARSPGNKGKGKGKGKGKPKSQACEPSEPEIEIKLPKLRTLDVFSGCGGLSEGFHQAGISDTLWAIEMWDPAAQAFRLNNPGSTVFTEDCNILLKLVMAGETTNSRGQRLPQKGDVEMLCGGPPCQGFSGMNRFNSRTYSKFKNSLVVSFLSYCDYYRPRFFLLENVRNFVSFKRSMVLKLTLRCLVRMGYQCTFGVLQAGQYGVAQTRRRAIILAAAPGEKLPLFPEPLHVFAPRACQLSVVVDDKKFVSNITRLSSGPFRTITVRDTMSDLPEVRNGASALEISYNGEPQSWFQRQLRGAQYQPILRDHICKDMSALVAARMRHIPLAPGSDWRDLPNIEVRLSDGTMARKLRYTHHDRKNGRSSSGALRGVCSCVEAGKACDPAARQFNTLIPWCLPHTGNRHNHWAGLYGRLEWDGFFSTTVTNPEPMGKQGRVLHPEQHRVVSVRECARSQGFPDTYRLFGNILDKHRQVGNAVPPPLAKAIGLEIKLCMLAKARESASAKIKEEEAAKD

O=C(O)[C@H](Cc1c[nH]c2ccccc12)N1C(=O)c2ccccc2C1=O
Activity [1]: 2.2 RU
Kd [2]: 94.6 µM
IC50 (A2780): > 200 µM
IC50 (HeLa): > 200 µM
IC50 (K562): > 200 µM
IC50 (SiHa): > 200 µM
IC50 [3]: 0.115 µM
Kd [4]: 94.6 µM
inhibition [5]: < 5%
inhibition [6]: < 5%
